In PubChem BioAssay AID651878 (Vanderbilt Specialized Chemistry Center, 2012):
Activity calls are given as the source filed them.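 Rule for the calls: active = Positive modulators of the M5 receptor in a calcium signal test, half-maximal potency under 10 µM; inactive = the rest.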

Molecular target: Muscarinic acetylcholine receptor M5 (Homo sapiens) (UniProt P08912)
Experiment: M5 receptor positive allosteric modulators, dose response, cell-based, concentration-response curve (AID 651878)
Details: CHO-K1 hM5, Fluo-4 calcium flux, ACh EC20 potentiation; for % ACh max response: at 31.6 µM (top of the series)

Muscarinic acetylcholine receptor M5 (Homo sapiens), sequence (P08912 whole entry, looked up): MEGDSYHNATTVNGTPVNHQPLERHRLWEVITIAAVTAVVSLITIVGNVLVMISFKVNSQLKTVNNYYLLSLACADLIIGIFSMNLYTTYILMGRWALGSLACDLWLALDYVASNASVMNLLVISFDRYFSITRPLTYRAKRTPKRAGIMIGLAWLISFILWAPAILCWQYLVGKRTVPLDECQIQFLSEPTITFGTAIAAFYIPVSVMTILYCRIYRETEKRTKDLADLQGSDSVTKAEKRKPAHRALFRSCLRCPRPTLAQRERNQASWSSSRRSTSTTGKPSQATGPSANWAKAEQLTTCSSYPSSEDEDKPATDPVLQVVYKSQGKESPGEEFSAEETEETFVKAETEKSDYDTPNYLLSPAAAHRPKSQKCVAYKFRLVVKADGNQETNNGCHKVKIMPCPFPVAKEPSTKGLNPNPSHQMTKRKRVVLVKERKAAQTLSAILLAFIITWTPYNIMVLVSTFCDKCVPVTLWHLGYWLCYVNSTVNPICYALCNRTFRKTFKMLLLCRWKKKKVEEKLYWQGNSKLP

Row | % ACh max response | Compound | EC50 [nM]
1 | inactive | COc1ccc(CN2C(=O)C3(COC3)c3cc(OC(F)(F)F)ccc32)cc1 | –
2 | 74.4% | COc1ncc(-c2ccc(CN3C(=O)C(=O)c4cc(OC(F)(F)F)ccc43)cc2)cn1 | –

More lines, now with the values behind:

Row | Compound | % ACh max response | EC50 [nM]
3 | COc1ccc(CN2C(=O)C(O)(c3ccc(F)nc3)c3cc(OC(F)(F)F)ccc32)cc1 (configuration not stated) | – | 2190
4 | COc1ccc(-c2ccc(CN3C(=O)C(=O)c4cc(OC(F)(F)F)ccc43)cc2)cn1 | 71.9% | –
5 | COc1ccc(CN2C(=O)C(CO)(CO)c3cc(OC(F)(F)F)ccc32)cc1 | inactive | –
6 | COc1ccc(CN2C(=O)C(O)(C[N+](=O)[O-])c3cc(OC(F)(F)F)ccc32)cc1 (configuration not stated) | – | 1380
7 | COc1ccc(CN2C(=O)C(O)(c3ccc(N(C)C)nc3)c3cc(OC(F)(F)F)ccc32)cc1 (configuration not stated) | inactive | –
